According to PubChem BioAssay AID248 (DTP/NCI, 2004):
Several values for one entry are separate records, joined by “and”; a condition that tells them apart may be missing. Identical values can stand only once. Toxic doses and inconclusive results are not listed. No stated cut-off is given here; in the data, active means T/C of 150% or more; inactive means T/C below 125%.

Test system: L1210 leukemia ip in BDF1 mice, survival T/C
Assay: NCI In Vivo Anticancer Drug Screen. Data for tumor model L1210 Leukemia (intraperitoneal) in B6D2F1 (BDF1) mice
Details: endpoint: mean survival time, higher = longer survival
Method in brief: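 Transplantable tumor model; survival measured in treated vs vehicle control mice. Value = treated/control.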

[1] = dose: 100.0 mg/kg/injection, schedule: Q04DX003 (ip), vehicle: saline
[2] = dose: 100.0 mg/kg/injection, schedule: Q01DX001 (ip), vehicle: carboxymethylcellulose (CMC)
[3] = dose: 200.0 mg/kg/injection, schedule: Q01DX001 (ip), vehicle: carboxymethylcellulose (CMC)
[4] = dose: 400.0 mg/kg/injection, schedule: Q01DX001 (ip), vehicle: carboxymethylcellulose (CMC)

Measured: T/C

Nc1ncnc(N)c1[N+](=O)[O-]
inactive: dose: 125.0 mg/kg/injection, schedule: Q01DX Z (ip), vehicle: methylcellulose (MC) 88 % of control

C=C(C)C1C=CC(O)=C2C(=O)CCC(C)C21C (stereo not drawn)
inactive: dose: 25.0 mg/kg/injection, schedule: Q04DX003 (ip), vehicle: saline 100 % of control | dose: 50.0 mg/kg/injection, schedule: Q04DX003 (ip), vehicle: saline 100 % of control | [1] 100 % of control

NN=C1CCC(=NN)CC1
inactive: dose: 25.0 mg/kg/injection, schedule: Q01DX009 (ip), vehicle: water 101 % of control | dose: 25.0 mg/kg/injection, schedule: Q04DX003 (ip), vehicle: water 109 % of control | dose: 50.0 mg/kg/injection, schedule: Q01DX009 (ip), vehicle: water 114 % of control | dose: 50.0 mg/kg/injection, schedule: Q04DX003 (ip), vehicle: water 109 % of control | dose: 100.0 mg/kg/injection, schedule: Q04DX003 (ip), vehicle: water 114 % of control and 124 % of control

CCCC[Si](C)(C)C
inactive: [2] 103 % of control | [3] 95 % of control | [4] 103 % of control

CCOC(=O)NP(=O)(Nc1ccccc1)Nc1ccccc1
inactive: dose: 50.0 mg/kg/injection, schedule: Q01DX001 (ip), vehicle: alcohol 104 % of control | dose: 100.0 mg/kg/injection, schedule: Q01DX001 (ip), vehicle: alcohol 98 % of control | dose: 200.0 mg/kg/injection, schedule: Q01DX001 (ip), vehicle: alcohol 102 % of control | dose: 400.0 mg/kg/injection, schedule: Q01DX001 (ip), vehicle: alcohol 104 % of control

COCc1nc2c(=S)nc[nH]c2n1N
inactive: [2] 105 % of control | [3] 98 % of control

CC(=O)OCC1OC(n2cnc3c(Cl)nc(N)nc32)C(OC(C)=O)C1OC(C)=O (stereo not drawn)
inactive: dose: 100.0 mg/kg/injection, schedule: Q01DX005 (ip), vehicle: saline 103 % of control | dose: 200.0 mg/kg/injection, schedule: Q01DX005 (ip), vehicle: saline 101 % of control

CCC(CCl)NC1CCCCC1 (stereo not drawn)
inactive: dose: 75.0 mg/kg/injection, schedule: Q01DX001 (ip), vehicle: saline 106 % of control | dose: 150.0 mg/kg/injection, schedule: Q01DX001 (ip), vehicle: saline 106 % of control

O=CNC(O)C(Cl)(Cl)Cl (stereo not drawn)
inactive: dose: 100.0 mg/kg/injection, schedule: Q01DX009 (ip), vehicle: saline 98 % of control | [1] 109 % of control | dose: 200.0 mg/kg/injection, schedule: Q01DX009 (ip), vehicle: saline 89 % of control | dose: 200.0 mg/kg/injection, schedule: Q04DX003 (ip), vehicle: saline 95 % of control | dose: 400.0 mg/kg/injection, schedule: Q01DX009 (ip), vehicle: saline 89 % of control | dose: 400.0 mg/kg/injection, schedule: Q04DX003 (ip), vehicle: saline 95 % of control

CC(C)(CN=Cc1cccc(O)c1)N=Cc1cccc(O)c1
inactive: dose: 75.0 mg/kg/injection, schedule: Q01DX009 (ip), vehicle: DMSO 95 % of control | dose: 100.0 mg/kg/injection, schedule: Q01DX001 (ip), vehicle: DMSO 100 % of control | dose: 100.0 mg/kg/injection, schedule: Q04DX003 (ip), vehicle: DMSO 89 % of control | dose: 150.0 mg/kg/injection, schedule: Q01DX009 (ip), vehicle: DMSO 93 % of control | dose: 200.0 mg/kg/injection, schedule: Q01DX001 (ip), vehicle: DMSO 96 % of control | dose: 200.0 mg/kg/injection, schedule: Q04DX003 (ip), vehicle: DMSO 88 % of control | dose: 400.0 mg/kg/injection, schedule: Q01DX001 (ip), vehicle: DMSO 100 % of control | dose: 400.0 mg/kg/injection, schedule: Q04DX003 (ip), vehicle: DMSO 89 % of control

O=C(N/N=C/c1ccccc1O)C(O)(c1ccccc1)c1ccccc1
inactive: [2] 101 % of control | [3] 97 % of control | [4] 97 % of control

CC(=O)CC(Cl)(C(F)(F)F)C(F)(F)F
inactive: dose: 50.0 mg/kg/injection, schedule: Q04DX003 (ip), vehicle: saline with Tween-80 100 % of control | dose: 100.0 mg/kg/injection, schedule: Q04DX003 (ip), vehicle: saline with Tween-80 100 % of control | dose: 200.0 mg/kg/injection, schedule: Q04DX003 (ip), vehicle: saline with Tween-80 86 % of control | dose: 400.0 mg/kg/injection, schedule: Q04DX003 (ip), vehicle: saline with Tween-80 88 % of control
